Source: patent US7601739B2, “Compounds having antiestrogenic and tissue selective estrogenic properties, and compounds with anti-androgenic properties for treatment of prostate cancer and androgen receptor dependent diseases” (Virgina Commonwealth University, priority 2006, dated 2009)

Legend:
hER = test: Fluorescence-based competitive binding assay for hER (displacement of fluormone ES2); parameters: species or system human; settings: RBA = IC50 of tamoxifen/IC50 of test molecule; tamoxifen set at 1
Method: The estrogen receptor competitor assay kits (Panvera, Madison, Wis.) were used to determine the ability of test molecules to displace the fluormone, ES2, from hER -ES2 or hER -ES2 complex. Serial dilutions of each test molecule were prepared in methanol or DMSO. The recombinant hER or hER (7 nM) was preincubated with ES2 (1 nM) in screening buffer. After the preincubation, the test molecules and ER-ES2 complex solution were added into the 96-well microplate to produce a final volume of 100 μl per well. The reaction was incubated at room temperature for 1 hr and the polarization values were measured by using fluorescence microplate reader, Polarion (Tecan, Research Triangle Park, N.C.) with excitation wavelength 495 nm and emission wavelength 535 nm. The polarization value versus test molecule concentration curves was analyzed by graphfit software to generate IC50 values.
In this assay, recombinant hER and the commercial synthetic estrogen, ES2 containing fluorescence polarization property, are used. This assay is a homogenous assay. When the assay solution only contains ES2, the solution exerts weak fluorescence polarization property due to the quick rotation of free ES2 molecule. […] Addition of the antiestrogen to the ES2/hER displaces ES2 from hER and results in the whole solution exerting less fluorescence polarization property than the solution without antiestrogen.

hERα = biological target: T1, hERα (Homo sapiens, UniProt P03372); test: Transient transfection reporter assay for hERα in MCF-7 cells; format: cell-based; parameters: Relative Estrogenic Activity: dose or concentration left out as unconfirmed; settings: for Relative Estrogenic Activity: MCF-7 cells transfected with hERα, DMSO set as 1; for estrogenic effect: compared with DMSO and tamoxifen; for Relative Antiestrogenic Activity at 2.5 μM: with 1 nM estradiol, 1 nM E2 used as reference (1)
T1 construct: mammalian expression plasmid containing full length human ER cDNA, pCMV-hER; expressed in transfected cells; host or cells: MCF-7 human breast cancer cells
T1 sequence (P03372 1-595): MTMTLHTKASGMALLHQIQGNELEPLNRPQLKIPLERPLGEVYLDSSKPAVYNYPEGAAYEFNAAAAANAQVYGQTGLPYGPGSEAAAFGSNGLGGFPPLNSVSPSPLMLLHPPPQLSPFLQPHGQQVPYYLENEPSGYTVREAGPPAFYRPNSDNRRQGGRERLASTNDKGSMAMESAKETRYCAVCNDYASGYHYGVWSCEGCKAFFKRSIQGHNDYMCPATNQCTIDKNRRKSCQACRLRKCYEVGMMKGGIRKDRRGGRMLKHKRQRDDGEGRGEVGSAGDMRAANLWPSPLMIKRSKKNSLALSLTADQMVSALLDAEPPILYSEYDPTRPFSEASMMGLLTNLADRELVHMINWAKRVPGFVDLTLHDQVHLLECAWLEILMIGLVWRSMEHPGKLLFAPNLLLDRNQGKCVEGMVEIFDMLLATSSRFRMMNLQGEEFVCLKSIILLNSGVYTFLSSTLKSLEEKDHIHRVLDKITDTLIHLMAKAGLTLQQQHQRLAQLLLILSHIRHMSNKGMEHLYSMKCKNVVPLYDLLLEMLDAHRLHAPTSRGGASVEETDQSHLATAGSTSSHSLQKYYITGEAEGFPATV
Method: For the transient transfection reporter assays, the cells were plated in triplicate in 12-well plates at a density of 300000 cells/well in the phenol red-free DMEM (GIBCO/BRL, Grand Island, N.Y.) supplemented with 10% charcoal-stripped fetal bovine serum (Hyclone, Logan, Utah), Penicillin (100 unit/ml)/Streptomycin ([…]), 2 mML-glutamine and 1 mM sodium Pyruvate. 24 hrs later, the cells were transfected with three plasmids by using Superfect transfection kit (Qiagen, Valencia, Calif.). For the detection of hER activity, cells were transfected with 2 g hER expression plasmid (pCMV-ER ), 6 g luciferase reporter plasmid containing estrogen receptor response element (PGL-TATA-Luc), and 600 ng normalization control, β-galactosidase reporter plasmid (pCMV ). For the detection of hER activity, cells were transfected with 3 ug hER expression plasmid (pcDNA3.1-hER), 6 g luciferase reporter plasmid containing estrogen receptor response element (PGL-TATA-Luc), and 600 ng pCMV. For determining the influence of ER's major coactivator in breast, AIB 1, 2 g pcDNA3.1-AIB1 was added into the transfection plasmid solution mentioned previously.
The transfected cells were rinsed with PBS and treated with various concentrations of test molecules and one […] (vehicle, DMSO or methanol) in phenol red-free culture medium. After incubation for further 24 hrs, the cells were washed with PBS and lysed with lysis buffer (Pierce, Rockford, Ill.). The lysate was used to determine the luciferase activity for ER's activity and the β-galactosidase activity for the normalization of transfection efficiency.
For the luciferase activity assay, 20 μl of lysate and 100 μl luciferase assay buffer (Promega, Madison, Wis.) were added into a well of 96-well plate. The luminescence was detected by using luminescence microplate reader, LumiCount (Packard, Boston, Mass.). For the β-galactosidase activity assay, […] β-galactosidase assay buffer (Clontech, Palo Alto, Calif.) were added into a well of 96-well plate. The β-galactosidase activity was measured as luminescence strength by using luminescence microplate reader, LumiCount (Packard, Boston, Mass.). The normalized reporter activity was calculated by the luciferase activity divided by that of β-galactosidase.
The transient transfection reporter assay was used to determine the estrogenic or antiestrogenic activity of tested compounds in employed human breast cancer cells, MCF-7 cells that are cotransfected with hERα expression and reporter plasmids. […] […] The estrogenic (antiestrogenic) activity was determined by dividing the luciferase activity by the β-galactosidase activity. To determine the influence of estrogen receptor's major coactivator in breast cancer, AIB1, for the compounds' estrogenic activity, the expression vector of AIB1 was additionally cotransfected with the plasmids mentioned above.

MCF-7 cells = test: hERα positive breast cancer cell proliferation assay; format: cell-based, human; settings: for activity at 5 µM: Homo sapiens, MCF7, 72 h, MCF-7 cells, DMSO = 1, read-out: Relative Cancer Cell Proliferation Effects at 5 μM
Method: (§1) MCF-7 or MDA-MB-231 cells were inoculated into 12-well culture plates at 10000 cells in 2 ml maintained medium per well. Cells were allowed to attach to the bottom for 24 hrs incubation, then the seeding medium was removed and replaced by the experimental medium (phenol red-free DMEM supplemented with 5% charcoal-stripped fetal bovine serum and Penicillin (100 unit/ml)/Streptomycin ([…])). After 24 hr incubation, the test molecules dissolved in DMSO were added in the wells. […] The culture was continued for 3 days and the medium and tested compounds were replaced every two days. The final cell numbers were estimated with CellTiter proliferation assay kit (Promega, Madison, Wis.) by measuring the absorbance at 570 nm, which is directly proportional to the number of living cells in the culture.
MCF-7 cell line was used to perform this assay and the description of this assay as mentioned above. […] DMSO was used as reference.

MDA-MB-231 cells = test: hER negative breast cancer cell proliferation assay; format: cell-based, human; settings: hER negative cell line
Method: as §1
In this assay, MDA-MB-231 breast cancer cell line, a hER negative cell line, was used. DMSO was used as reference.

| SMILES | Relative Binding Affinity (hER) | Relative Estrogenic Activity (hERα) | antiestrogenic activity against various concentrations of estrogen (FIG. 4) (hERα; MCF-7 cells, hERα) | estrogenic effect (hERα; MCF-7 cells, hERα) | Relative Antiestrogenic Activity at 2.5 μM (hERα) | activity at 5 µM (MCF-7 cells) [%] | inhibition effects against MCF-7 cell proliferation (MCF-7 cells) | antiestrogenic / inhibition activity (hERα; against 1 nM estrogen) | stimulation of growth of DMSO-treated MCF-7 cells (MCF-7 cells; 2 nM estrogen) [%] | inhibition of MCF-7 cell proliferation (MCF-7 cells; relative to DMSO) [%] | proliferation effects against MDA-MB-231 cells (FIG. 6, words) (MDA-MB-231 cells) |
| --- | --- | --- | --- | --- | --- | --- | --- | --- | --- | --- | --- |
| CCCCNC(=O)CCCCCCCCCCOCC1Cc2ccccc2CN1C(=O)c1ccccc1F (stereo not shown) [Compound 1] | 0.225 | 1.02 | can antagonize estrogen's action in a dose dependent manner | do not exert any estrogenic effects | 1.17 | 106 |  |  |  |  |  |
| CCCCNC(=O)CCCCCCCCCCOCC1Cc2ccccc2CN1C(=O)c1ccc(F)cc1 (stereo not shown) [Compound 3] | 0.264 | 1.09 |  | do not exert any estrogenic effects | 0.93 | 91 | slight inhibition effects |  |  |  |  |
| CCCCNC(=O)CCCCCCCCCCOCC1Cc2ccccc2CN1C(=O)c1ccc(OC)cc1 (stereo not shown) [Compound 5] | 0.14 | 1.06 |  | do not exert any estrogenic effects | 1.64 | 98 |  |  |  |  |  |
| CCCCNC(=O)CCCCCCCCCCOCC1Cc2ccccc2CN1C(=O)c1cccc(C)c1 (stereo not shown) [Compound 8, 11-[2-(3-Methyl-benzoyl)-1,2,3,4tetrahydro-isoquinolin-3-ylmethoxy]-undecanoic acid butylanide] | 0.156 | 1.32 |  |  | 0.75 | 84 | slight inhibition effects | moderate antiestrogenic effect |  |  |  |
| CCCCNC(=O)CCCCCCCCCCOCC1Cc2ccccc2CN1C(=O)c1ccc(C)cc1 (stereo not shown) [Compound 9, 11-[2-(4-Methyl-benzoyl)-1,2,3,4-tetrahydro-isoquinolin-3-ylmethoxy]-undecanoic acid butylamide] | 0.132 | 1.72 |  |  | 1.34 | 101 |  |  |  |  |  |
| CCCCNC(=O)CCCCCCCCCCOCC1Cc2ccccc2CN1C(=O)c1cccc(Cl)c1 (stereo not shown) [Compound 10, 11-[2-(3-Chloro-benzoyl)-1,2,3,4tetrahydro-isoquinolin-3-ylmethoxy]-undecanoic acid butylamide] | 0.156 | 0.68 |  | do not exert any estrogenic effects | 0.83 | 86 | slight inhibition effects |  |  |  |  |
| CCCCCCCCNC(=O)CCCCCCCCCCOCC1Cc2ccccc2CN1C(=O)c1cccc(F)c1 (stereo not shown) [Compound 11, 11-[2-(3-Fluoro-benzoyl)-1,2,3,4-tetrahydro-isoquinolin-3-ylmethoxy]-undecanoic acid octylamide] | 0.177 | 0.83 |  | do not exert any estrogenic effects | 1.11 | 100 |  |  |  |  |  |
| CCCCNC(=O)CCCCCCCCCCOCC1Cc2ccccc2CN1C(=O)Cc1cccc(F)c1 (stereo not shown) [Compound 12, 11-{2-[2-(3-Fluoro-phenyl)-acetyl]-1,2,3,4-tetrahydro-isoquinolin-3-ylmethoxy]-undecanoic acid butylamide] | 0.267 | 1.68 |  |  | 1.01 | 120 |  |  |  |  |  |
| C[C@]12CC[C@@H]3c4ccc(O)cc4CC[C@H]3[C@@H]1CC[C@@H]2O [Compound E2, estradiol, reference compound] |  |  |  |  |  |  |  |  | 150 |  |  |
| CC/C(=C(\c1ccccc1)c1ccc(OCCN(C)C)cc1)c1ccccc1 [Tamoxifen, reference compound] |  |  |  |  |  | 42 |  |  |  | 58 | moderate anti-proliferation effects |
